Data taken from ChEMBL document CHEMBL1201862, “PubChem BioAssay data set” (2004).
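Test compounds were applied to cells in 96-well plates for 48 hours at 5 doses. GI50 marks 50% less growth.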 Calls of active or inactive are those of the source. Cut-off read from the data, not from the text of the source: active = GI50 up to about 1.1 µM and inactive = higher.

Assays:
Assay in all cases: inhibition of tumour cell growth, NCI panel, 48 h
BT-549 = system: BT-549
MDA-N = system: MDA-N
HT-29 = system: HT-29
TK-10 = system: TK-10
CAKI-1 = system: CAKI-1
RXF 393 = system: RXF 393
HOP-62 = system: HOP-62
OVCAR-5 = system: OVCAR-5
KM12 = system: KM12
HCC 2998 = system: HCC 2998
SNB-19 = system: SNB-19
SR = system: SR
SF-295 = system: SF-295
Hs-578T = system: Hs-578T
HL-60 = system: HL-60
DU-145 = system: DU-145
NCI-H460 = system: NCI-H460
OVCAR-4 = system: OVCAR-4
SK-OV-3 = system: SK-OV-3

| Structure (SMILES) | GI50 (BT-549) | GI50 (MDA-N) | GI50 (HT-29) | GI50 (TK-10) | GI50 (CAKI-1) | GI50 (RXF 393) | GI50 (HOP-62) | GI50 (OVCAR-5) | GI50 (KM12) | GI50 (HCC 2998) | GI50 (SNB-19) | GI50 (SR) | GI50 (SF-295) | GI50 (Hs-578T) | GI50 (HL-60) | GI50 (DU-145) | GI50 (NCI-H460) | GI50 (OVCAR-4) | GI50 (SK-OV-3) |
| --- | --- | --- | --- | --- | --- | --- | --- | --- | --- | --- | --- | --- | --- | --- | --- | --- | --- | --- | --- |
| N#Cc1c(N)nc(S)c(C#N)c1-c1ccccc1 | 54 µM (inactive) | > 100 µM (inactive) | > 100 µM (inactive) | > 100 µM (inactive) | 88.1 µM (inactive) | > 100 µM (inactive) | > 100 µM (inactive) | > 100 µM (inactive) | > 100 µM (inactive) | > 100 µM (inactive) | > 100 µM (inactive) | > 100 µM (inactive) | > 100 µM (inactive) | > 100 µM (inactive) | > 100 µM (inactive) | > 100 µM (inactive) | > 100 µM (inactive) |  |  |
| c1ccc(NCCSc2nc3ccccc3s2)cc1 | 34.8 µM (inactive) | 36.9 µM (inactive) | 30.5 µM (inactive) | 23.6 µM (inactive) | 93.1 µM (inactive) | 55.7 µM (inactive) | > 100 µM (inactive) | 54 µM (inactive) | 30.9 µM (inactive) |  | > 100 µM (inactive) | 39.7 µM (inactive) | > 100 µM (inactive) | > 100 µM (inactive) | 32.1 µM (inactive) | 97.1 µM (inactive) | 30.9 µM (inactive) | 49.8 µM (inactive) | > 100 µM (inactive) |
| O=C(CCNC(=O)OCc1ccccc1)OCCCNC(=O)OCc1ccccc1 | > 100 µM (inactive) | > 100 µM (inactive) | > 100 µM (inactive) | > 100 µM (inactive) |  | > 100 µM (inactive) | > 100 µM (inactive) | > 100 µM (inactive) | > 100 µM (inactive) | > 100 µM (inactive) | > 100 µM (inactive) | > 100 µM (inactive) | > 100 µM (inactive) | > 100 µM (inactive) | > 100 µM (inactive) | > 100 µM (inactive) | > 100 µM (inactive) | > 100 µM (inactive) | > 100 µM (inactive) |
| CCOC(=O)/C(=N\Nc1ccc(-n2c(C)nc3ccccc3c2=O)cc1)C(C)=O | 33.3 µM (inactive) | 29 µM (inactive) | 53.6 µM (inactive) | 20.9 µM (inactive) | > 100 µM (inactive) |  | 40.2 µM (inactive) | > 100 µM (inactive) | 17.7 µM (inactive) |  | > 100 µM (inactive) | 33.3 µM (inactive) | 33 µM (inactive) | 20.7 µM (inactive) | 14 µM (inactive) | 80.2 µM (inactive) | 92.9 µM (inactive) |  | 74 µM (inactive) |
| C=C1CC(Cn2cc(Br)c(=O)[nH]c2=O)(c2ccc(Br)cc2)OC1=O (stereo not drawn) | 2.37 µM (inactive) | 2.37 µM (inactive) | 2.3 µM (inactive) | 7.23 µM (inactive) | 2.38 µM (inactive) |  | 14.5 µM (inactive) | 6.38 µM (inactive) | 4.02 µM (inactive) | 3.48 µM (inactive) | 15.8 µM (inactive) | 1.52 µM (inactive) | 12.1 µM (inactive) | 5.98 µM (inactive) | 0.621 µM (active) | 5.65 µM (inactive) | 14.1 µM (inactive) | 1.85 µM (inactive) | 12.2 µM (inactive) |
| O=C1/C(=C\Oc2ccc(F)cc2)N2CCC1CC2 | 55 µM (inactive) | 47.2 µM (inactive) | 60.1 µM (inactive) | 55.3 µM (inactive) | 84.9 µM (inactive) | 25.1 µM (inactive) | > 100 µM (inactive) | > 100 µM (inactive) |  |  | 56.6 µM (inactive) | 16.4 µM (inactive) | > 100 µM (inactive) | 28.7 µM (inactive) | 35.2 µM (inactive) | 0.544 µM (active) |  | 46.8 µM (inactive) | > 100 µM (inactive) |
| CC(=O)Oc1ccc2c3c1[C@H]1O[C@H]1c1cccc(c1-3)[C@@H]1O[C@H]21 | 8.97 µM (inactive) | 6.87 µM (inactive) | 7.18 µM (inactive) | 13.9 µM (inactive) | 3.22 µM (inactive) | 0.409 µM (active) | 5.19 µM (inactive) | 14.8 µM (inactive) | 12.6 µM (inactive) | 7.78 µM (inactive) | 15.8 µM (inactive) | 10.9 µM (inactive) | 10 µM (inactive) | 5.58 µM (inactive) | 1.82 µM (inactive) | 7.83 µM (inactive) |  | 7.23 µM (inactive) | 14.6 µM (inactive) |
| COc1cc(C(=O)N(C(=S)OCc2ccccn2)c2ccccc2)cc(OC)c1OC | 41 µM (inactive) | 96.4 µM (inactive) | 29.9 µM (inactive) | 70.8 µM (inactive) | 44.7 µM (inactive) | 42.2 µM (inactive) |  | 49.2 µM (inactive) | > 100 µM (inactive) |  | > 100 µM (inactive) | 8.47 µM (inactive) |  | 53.7 µM (inactive) | 27 µM (inactive) | 33.8 µM (inactive) | 35.6 µM (inactive) |  | > 100 µM (inactive) |
| CO[C@H]1SC[C@H](OC(C)=O)[C@H](OC(C)=O)[C@H]1OC(C)=O | > 100 µM (inactive) | > 100 µM (inactive) | > 100 µM (inactive) | > 100 µM (inactive) | > 100 µM (inactive) |  | > 100 µM (inactive) |  | > 100 µM (inactive) | > 100 µM (inactive) | > 100 µM (inactive) | > 100 µM (inactive) | > 100 µM (inactive) | > 100 µM (inactive) | > 100 µM (inactive) | > 100 µM (inactive) | > 100 µM (inactive) | > 100 µM (inactive) |  |
| COC(=O)Cc1c(/C=C/C(C)(C)n2cnc(CCN3C(=O)CCC3=O)c2)[nH]c2ccccc12 | > 100 µM (inactive) | > 100 µM (inactive) | 35.4 µM (inactive) | > 100 µM (inactive) | > 100 µM (inactive) | 36.3 µM (inactive) |  | > 100 µM (inactive) | > 100 µM (inactive) |  | > 100 µM (inactive) | 61.4 µM (inactive) | 81.1 µM (inactive) | 43.7 µM (inactive) | > 100 µM (inactive) | > 100 µM (inactive) | > 100 µM (inactive) | > 100 µM (inactive) | > 100 µM (inactive) |
| COC(=O)C1=Nc2c(C)nn(-c3ccccc3)c2N=C(c2ccccc2)C1 | > 10 µM (inactive) | > 10 µM (inactive) | > 10 µM (inactive) | > 10 µM (inactive) | > 10 µM (inactive) |  | > 10 µM (inactive) | 0.001 µM (active) | > 10 µM (inactive) | > 10 µM (inactive) | > 10 µM (inactive) | > 10 µM (inactive) | > 10 µM (inactive) | > 10 µM (inactive) | > 10 µM (inactive) | > 10 µM (inactive) |  | > 10 µM (inactive) | > 10 µM (inactive) |
| Cc1cc(=O)oc2c(C)c3oc(CBr)cc3cc12 | 15.3 µM (inactive) | 19.2 µM (inactive) | 27.4 µM (inactive) | 19.9 µM (inactive) | 17.5 µM (inactive) |  | 16.2 µM (inactive) | 16.8 µM (inactive) | 19.1 µM (inactive) | 15.8 µM (inactive) | 29 µM (inactive) | 33 µM (inactive) | 17.1 µM (inactive) | 35.6 µM (inactive) | 18.3 µM (inactive) | 33.6 µM (inactive) | 17.2 µM (inactive) | 25.8 µM (inactive) | 27.4 µM (inactive) |
| CC(=O)O[C@H]1C(=O)[C@@]2(C)[C@H]([C@H](OC(=O)c3ccccc3)[C@@]3(O)C[C@H](O)C(C)=C1C3(C)C)[C@]1(OC(C)=O)CO[C@@H]1C[C@@H]2O | 32.4 µM (inactive) | 4.55 µM (inactive) | 23.3 µM (inactive) | 83.2 µM (inactive) | > 100 µM (inactive) | 37.1 µM (inactive) | 54 µM (inactive) | 63.5 µM (inactive) | 15.2 µM (inactive) |  | 69.3 µM (inactive) | 12.9 µM (inactive) | 37.5 µM (inactive) | 19 µM (inactive) | 61.9 µM (inactive) | 34.7 µM (inactive) | 24.2 µM (inactive) | > 100 µM (inactive) | 22.7 µM (inactive) |
| CC(C)[C@H]1NC(=O)[C@H]2N=C(O[C@@H]2C)[C@@H]2CCCN2C(=O)[C@H](Cc2ccccc2)NC(=O)[C@@H]2CSC(=N2)[C@@H](Cc2ccccc2)NC(=O)[C@@H]2CSC1=N2 | > 100 µM (inactive) | > 100 µM (inactive) | 84.5 µM (inactive) | > 100 µM (inactive) | > 100 µM (inactive) | 61.4 µM (inactive) | > 100 µM (inactive) | > 100 µM (inactive) | 88.1 µM (inactive) | 21.7 µM (inactive) | > 100 µM (inactive) | > 100 µM (inactive) | > 100 µM (inactive) | > 100 µM (inactive) | > 100 µM (inactive) | > 100 µM (inactive) |  | 38.2 µM (inactive) | > 100 µM (inactive) |
| COc1ccc2c(c1)N(CCC1CCCCN1C)c1ccccc1S2 (stereo not drawn) [OXYRIDAZINE] | 16.1 µM (inactive) | 12 µM (inactive) | 5.12 µM (inactive) | 14.5 µM (inactive) | 9.48 µM (inactive) | 7.18 µM (inactive) | 15.8 µM (inactive) | 15.2 µM (inactive) | 10.8 µM (inactive) |  | 15.2 µM (inactive) | 5.73 µM (inactive) | 16 µM (inactive) | 10.3 µM (inactive) | 9.14 µM (inactive) | 13.2 µM (inactive) | 7.46 µM (inactive) | 11.1 µM (inactive) | 16.3 µM (inactive) |
